Experimental data from patent US20260374794A1, “COMPOUNDS TARGETING MUTANT OF P53” (JACOBIO PHARMACEUTICALS CO., LTD., priority 2022, published 2026).
pEC50, pIC50: −log10 of the molar value.

Legend:
NUGC-3 (P53 Y220C) = assay: Cell viability assay (CellTiter-Glo); type: cell-based; conditions: Homo sapiens, 144 h, NUGC-3 cells, 6 days, 37 °C
Protocol: Cells were collected and counted. A desired number of cells was seeded into 96-well microplate and cultured in 37 °C cell incubator overnight. Compounds dissolved in cell culture medium were added into cell plate and cultured for 6 days. After balancing CellTiter-Glo reagent and cells at room temperature for 30 min, equal volume of CellTiter-Glo reagents was added to assay plate and shaken for 2 min for cell lysis. The cells were balanced at room temperature for 10 minutes and Luminescence signal was read using Envision. The percent of cell viability for compounds treated wells were normalized between High control and low control. Wells containing cell culture medium and same percentage DMSO served as Low control. Wells containing cells and same percentage DMSO served as High control. Cell viability (%)=(Luminescence readoutCompound treated−Luminescence readoutLow control)/(Luminescence readoutHigh control−Luminescence readoutLow control)*100%. Then the data were analyzed either by fitting a 4-parameter logistic model or by Excel to calculate IC50 values. And the IC50 was the concentration at […] Cell viability on the curve.

p53(Y220C) = molecular target: T1, p53(Y220C) (Homo sapiens, UniProt P04637, Y220C); assay: In vitro DNA binding assay (HTRF), His-p53 Y220C (94-294) with biotinylated p53 consensus DNA; type: biochemical; conditions: HTRF; 27 °C; His-p53 Y220C (94-294) 2.5 nM; biotinylated DNA 10 nM; normalized to 2 μM Ref-1a; EC50 = concentration at 50% Activation; read-out: p53(Y220C) EC50
T1 construct: His-p53 Y220C (94-294) protein
Outline: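 His-p53 Y220C (94-294), 2.5 nM, preincubated with compound and anti-His-Tb cryptate 15 min at 25 °C then 60 min at 27 °C; 10 nM biotinylated consensus DNA with streptavidin-d2 added for 60 min more (HEPES pH 7.4, 75 mM KCl). HTRF 665/620 ratio, normalized to 2 μM Ref-1a high control; EC50 from 4-parameter fit.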

p53(Y220C)_NUGC-3 = p53(Y220C)_NUGC-3 (Homo sapiens, UniProt P04637, Y220C); assay: Reporter gene assay (NUGC-3_P53_Luc cells); type: cell-based; conditions: 6 hours, 37 °C, luciferase, normalized to Ref-1a 10 μM, EC50 = concentration at 50% Activity, read-out: p53(Y220C)_NUGC-3 EC50
Protocol: NUGC-3_P53_Luc single clonal cell line was established using pGL4.38[luc2P/p53 RE/Hygro] Vector (E365A, promega). NUGC-3_P53_Luc single clonal cells were cultured in 37 °C cell incubator before use. NUGC-3_P53_Luc cells were collected and washed twice with PBS to remove phenol red and then resuspended in medium to a proper concentration. Tested compound dilutions were transferred into 384 well assay plates (PerkinElmer). A desired number of cells was seeded into the assay plate and cultured for 6 hours at 37 °C cell incubator. Britelite plus Luciferase Assay Reagent were added into each well and the luminescence value was recorded on Envision. The percent of activity value of compounds treated wells was normalized between high control and low control. Wells containing cells and Ref-la (10 μM) served as high control, and wells containing cells and same percentage of DMSO served as low control. Activity value (%)=(Luminescence readoutCompound treated−Luminescence readoutLow control)/(Luminescence readoutHigh control−Luminescence readoutLow control)*100%. Then the data were analyzed either by fitting a 4-parameter logistic model or by Excel to calculate EC50 values and the EC50 was the concentration at 50% Activity on the curve.

pEC50 (p53(Y220C)): 7.44 | pEC50 (p53(Y220C)_NUGC-3): 7.11
Structure (SMILES): COc1cc([S@@](C)(=N)=O)ccc1NCC#Cc1sc2c(N[C@H]3CCN(C)C[C@H]3F)cccc2c1[C@@H](O)C(F)(F)F [Example 61, (S)-(4-((3-(7-(((3R,4S)-3-fluoro-1-methylpiperidin-4-yl)amino)-3-((R)-2,2,2-trifluoro-1-hydroxyethyl)benzo[b]thiophen-2-yl)prop-2-yn-1-yl)amino)-3-methoxyphenyl)(imino)(methyl)-16-sulfanone]
pIC50 (NUGC-3 (P53 Y220C)): 6.42
